Results as given in the NIST ThermoML archive (doi:10.1021/je800110r).

Conditions: 293.15 K, Liquid, Vibrating tube method

CCCCCCCCCC [decane]
Conditions	mass density [kg/m3]
12325 kPa	739.1
12342 kPa	739.1
12359 kPa	739
12381 kPa	739
12401 kPa	739.1
12417 kPa	739
12437 kPa	739.1
12454 kPa	739
12476 kPa	739.3
12499 kPa	739.2
12516 kPa	739.1
12536 kPa	739.1
12556 kPa	739.1
12576 kPa	739.1
12593 kPa	739.2
12610 kPa	739.3
12633 kPa	739.3
12653 kPa	739.2
12677 kPa	739.2
12703 kPa	739.2
12720 kPa	739.2
12744 kPa	739.3
12759 kPa	739.2
12785 kPa	739.3
12809 kPa	739.3
12827 kPa	739.3
12851 kPa	739.3
12872 kPa	739.5
12896 kPa	739.3
12917 kPa	739.5
12939 kPa	739.5
12957 kPa	739.4
12978 kPa	739.4
12999 kPa	739.5
13018 kPa	739.5
13039 kPa	739.5
13058 kPa	739.5
13080 kPa	739.6
13098 kPa	739.5
13127 kPa	739.6
13152 kPa	739.6
13172 kPa	739.7
13197 kPa	739.5
13216 kPa	739.6
13235 kPa	739.6
13251 kPa	739.7
13274 kPa	739.7
13290 kPa	739.7
13309 kPa	739.7
13329 kPa	739.6
13359 kPa	739.6
13385 kPa	739.8
13408 kPa	739.7
13435 kPa	739.7
13459 kPa	739.8
13479 kPa	739.8
13501 kPa	740
13525 kPa	739.9
13548 kPa	739.8
13569 kPa	740
13586 kPa	739.9
13609 kPa	739.9
13626 kPa	739.9
13644 kPa	739.8
13667 kPa	740
13686 kPa	740
13701 kPa	740
13722 kPa	739.9
13745 kPa	740
13766 kPa	739.9
13784 kPa	739.9
13802 kPa	740
13820 kPa	740
13844 kPa	740
13862 kPa	740.1
13881 kPa	739.9
13903 kPa	740.2
13927 kPa	740.1
13943 kPa	740.1
13967 kPa	740.3
13989 kPa	740.1
14008 kPa	740.2
14024 kPa	740.3
14044 kPa	740.1
14061 kPa	740.2
14081 kPa	740.3
14098 kPa	740.3
14121 kPa	740.2
14139 kPa	740.3
14151 kPa	740.3
14167 kPa	740.2
14181 kPa	740.4
14194 kPa	740.3
14205 kPa	740.2
14220 kPa	740.4
14232 kPa	740.3
14245 kPa	740.4
14257 kPa	740.4
14269 kPa	740.2
14281 kPa	740.3
14297 kPa	740.4
14314 kPa	740.4
14325 kPa	740.4
14339 kPa	740.4
14352 kPa	740.4
14363 kPa	740.4
14376 kPa	740.4
14389 kPa	740.4
14404 kPa	740.4
14418 kPa	740.4
14427 kPa	740.5
14443 kPa	740.4
14458 kPa	740.5
14471 kPa	740.4
14483 kPa	740.6
14500 kPa	740.6
14517 kPa	740.5
14529 kPa	740.4
14542 kPa	740.6
14554 kPa	740.4
14566 kPa	740.6
14580 kPa	740.6
14592 kPa	740.5
14605 kPa	740.5
14617 kPa	740.6
14637 kPa	740.6
14650 kPa	740.7
14664 kPa	740.6
14676 kPa	740.7
14691 kPa	740.6
14706 kPa	740.7
14717 kPa	740.7
14735 kPa	740.6
14753 kPa	740.7
14765 kPa	740.7
14779 kPa	740.7
14791 kPa	740.7
14807 kPa	740.7
14821 kPa	740.7
14833 kPa	740.8
14847 kPa	740.7
14859 kPa	740.7
14877 kPa	740.9
14893 kPa	740.7
14910 kPa	740.8
14926 kPa	740.8
14943 kPa	740.9
14959 kPa	740.8
14975 kPa	740.9
14992 kPa	740.9
15008 kPa	740.8
15023 kPa	740.8
15039 kPa	740.9
15050 kPa	740.9
15066 kPa	740.9
15087 kPa	740.9
15102 kPa	740.9
15115 kPa	741
15129 kPa	740.8
15143 kPa	741
15156 kPa	740.9
15175 kPa	741
15192 kPa	741
15209 kPa	740.9
15224 kPa	741
15236 kPa	741
15251 kPa	741.2
15270 kPa	741.1
15288 kPa	741.1
15305 kPa	741.1
15317 kPa	741.1
15339 kPa	741.1
15352 kPa	741
15365 kPa	741.1
15382 kPa	741.1
15393 kPa	741.1
15408 kPa	741.2
15428 kPa	741.1
15443 kPa	741.2
15454 kPa	741
15470 kPa	741.2
15485 kPa	741.2
15503 kPa	741.2
15519 kPa	741.2
15539 kPa	741.2
15556 kPa	741.1
15572 kPa	741.2
15588 kPa	741.1
15604 kPa	741.4
15622 kPa	741.2
15644 kPa	741.2
15658 kPa	741.2
15676 kPa	741.3
15694 kPa	741.4
15710 kPa	741.3
15722 kPa	741.3
15735 kPa	741.3
15751 kPa	741.4
15769 kPa	741.4
15792 kPa	741.3
15809 kPa	741.5
15827 kPa	741.3
15843 kPa	741.3
15857 kPa	741.5
15872 kPa	741.5
15888 kPa	741.4
15909 kPa	741.5
15925 kPa	741.5
15942 kPa	741.5
15959 kPa	741.5
15974 kPa	741.5
15989 kPa	741.5
16007 kPa	741.6
16024 kPa	741.5
16039 kPa	741.6
16056 kPa	741.5
16073 kPa	741.6
16093 kPa	741.6
16108 kPa	741.6
16128 kPa	741.6
16142 kPa	741.6
16167 kPa	741.7
16183 kPa	741.8
16198 kPa	741.7
16215 kPa	741.7
16233 kPa	741.7
16251 kPa	741.8
16267 kPa	741.8
16282 kPa	741.7
16298 kPa	741.7
16314 kPa	741.7
16332 kPa	741.6
16345 kPa	741.8
16369 kPa	741.8
16390 kPa	741.8
16405 kPa	741.8
16426 kPa	741.8
16442 kPa	741.9
16464 kPa	741.8
16484 kPa	741.9
16503 kPa	741.9
16517 kPa	741.9
16533 kPa	741.9
16557 kPa	741.9
16569 kPa	741.9
16584 kPa	741.8
16597 kPa	741.9
16615 kPa	741.9
16628 kPa	742
16646 kPa	742
16662 kPa	742.1
16681 kPa	742
16694 kPa	742
16705 kPa	742.1
16717 kPa	742
16728 kPa	742
16745 kPa	742.2
16761 kPa	742
16772 kPa	742.1
16786 kPa	742
16800 kPa	742
16814 kPa	742
16828 kPa	742.2
16842 kPa	742
16860 kPa	742.1
16874 kPa	742.1
16892 kPa	742.1
16905 kPa	742.1
16923 kPa	742.2
16935 kPa	742.1
16956 kPa	742.1
16972 kPa	742.3
16986 kPa	742.2
